Columns and labels:
Acs2/WS2 = experiment: Acs2/WS2-coupled assay with oleic acid and ethanol (TLC); type: biochemical, Marinobacter hydrocarbonoclasticus; settings: oleic acid and ethanol as substrates, each 250 μM, 37° C. overnight
Experimental: In vitro coupled assays/TLC analysis—Stock solutions of various fatty acid substrates (oleic acid) were prepared in 50 mM Tris-HCl buffer (pH 8) containing 1% gum arabic, […], 0.1% taurocholate, and 100 mM of fatty acid. WS/Acs enzyme coupled assays were carried out in 500 μL reactions containing 50 mM Tris-HCl buffer pH 8.0, 12.5 μL of fatty acid stock solution and addition of ethyl alcohol solution (final concentrations of each substrate 250 μM), 10 mM MgCl2, 10 mM CoASH, 10 mM ATP, 5 mM TCEP, 0.1 U of inorganic pyrophosphatase, 0.25 μg of Acs2 (acyl CoA synthetase) and 0.5 μg of WS2 (wax ester synthase). Assays were incubated at 37° C. overnight before thin-layer chromatography (TLC) analysis of reaction products. In vitro WS assay samples were extracted with 500 μL of chloroform:methanol (1:1 [vol/vol]), and chloroform:methanol extracts were analyzed by TLC with Whatman normal phase silica gel 60 plates where products were separated using hexane:diethyl ether:acetic acid (90:10:1 [vol/vol/vol]). Products were compared to an ethyloleate standard. Resolved TLC plates were stained with iodine vapor.

[1] = tested on: S. cerevisiae YGL035c expressing WS2; experiment: Heterologous expression of WS2 in MIG1 deletion yeast, ethyloleate by TLC and GC; type: cell-based, Saccharomyces cerevisiae
Experimental: S. cerevisiae YGL035c BY4742 with following genotype: MATalpha his3Δ1 leu2Δ0 lys2Δ0 ura3Δ0 ΔMIG1 was purchased from ATCC ([…]; Manassas, Va.). S. cerevisiae YGL035c was cultivated for electro transformation in YPG (Yeast peptone glucose) medium at 30° C. overnight. 100 μL of washed yeast cell pellets were electroporated with 5 μL of pESC_URA for the negative control or 5 μL of pESC URA WS2, which expresses acyltransferase gene constructs. Cells were rescued with 800 μL 1M sorbitol and 200 μL were plated onto synthetic minimal media drop out agar plates without uracil. Colonies were seen after 2 days and were picked and grown in nitrogen base medium (Difco Detroit Mich.) […], and 0.13% (wt/vol), synthetic dropout medium supplement without uracil, and 2% (wt/vol) glucose. One hundred milliliter yeast cultures were grown aerobically overnight at 30° C. in 250 ml flask with synthetic dropout uracil growth media with glucose. Cells were spun down and resuspended in 200 mL of fresh dropout media with 2% glucose, 0.1% potassium oleate, and 2% galactose to induce expression of heterologous protein. Cultures were capped with a rubber stopper with syringe needle piercing the top of the rubber stopper to allow gas (carbon dioxide) to exit during the 72 hours anaerobic growth. Cells were harvested and resuspended in 1 mL of chloroform and approximately 0.5 grams of glass beads. Total lipid composition of yeast was determined from cells harvested from a 200-ml liquid culture, broken with glass-beads in a 50-mL Falcon tube, and extracted into 1.5 mL of chloroform.
Cells were vortexed vigorously for 5 minutes to lyse open cells and chloroform was removed and evaporated under nitrogen gas. 15 mL sample of 250 mL cultures were centrifuged and lysed with glass beads, the yeast lysates were resuspended in 1 ml chloroform for GC/MS analysis and TLC analysis.
Fifteen milliliters of grown yeast were centrifuged for 10 minutes at 4000 rpm. […]
For quantification of ethyloleate, chloroform extractions of three known amounts (1.5 nmoles, 15 nmoles, and 30 nmoles) of ethyloleate standard were injected into the gas chromatograph (GC) in which the peak areas were integrated to calculate the amounts of ethyloleate produced by YGL035c expressing WS2. Three microliters of chloroform extracts from the samples were injected and analyzed on a gas chromatography electron impact mass spectrometry that were performed with a Hewlett Packard 6890 series gas chromatograph connected to an HP 5973 mass spectrometer. […]

[2] = tested on: S. cerevisiae H1246 expressing WS2; experiment: Heterologous expression of WS2 in TAG deficient yeast, FAEE by TLC; type: cell-based, Saccharomyces cerevisiae; settings: H1246 given both ethanol and oleic acid as substrates
Experimental: Fifteen milliliters of grown yeast were centrifuged for 10 minutes at 4000 rpm. The cell pellets were vortexed vigorously with glass beads for 5 minutes to lyse open cells and extracted with 1 mL chloroform of which 5 μL were spotted on TLC with Whatman normal phase silica gel 60 plates and developed using hexane:diethyl ether:acetic acid (90:10:1, v/v/v). TLC plates were stained with either iodine vapor.

| Structure (SMILES) | Ethyloleate formation in Acs2/WS2-coupled assay (TLC) (Acs2/WS2) | % Efficiency oleate to ethyloleate ([1]; 0.1% (wt/vol) oleate in 250 mL (889 μmoles)) | Ethyloleate production in vivo (TLC) [2] | Ethyloleate formed from the oleate added ([1]; 250 mL culture, 889 μmoles oleate added) | Ethyloleate production in vivo (TLC) ([1]; Mig1 deletion yeast expressing pESC-URA-WS2, galactose induced, grown anaerobically with 0.1% potassium oleate) | Ethyloleate production in vivo (TLC) ([1]; potassium oleate not supplemented) |
| --- | --- | --- | --- | --- | --- | --- |
| CCCCCCCC/C=C\CCCCCCCC(=O)O [oleic acid] | ethyloleate ester product was synthesized in vitro | 5.5% |  |  |  |  |
| CCCCCCCC/C=C\CCCCCCCC(=O)OCC [ethyloleate] |  |  | produced in vivo | approximately 50 μmol | shown in vivo | No ethyloleate product was seen |
